Experiments:
Assay type in all cases: in vivo
[1] = system: redroot pigweed (Amaranthus retroflexus, AMARE); assay: Pre-emerge test, greenhouse herbicide activity screening; details: for phytotoxicity rating AMARE: pre-emerge, 14 days after application, scale 0-100; for Pre-emerge Herbicidal Activity, phytotoxicity rating (0-100), AMARE: rated 14 days after application, 0 = no damage, 100 = complete death
Outline: (§1)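 Rating: 0–100 visual injury, 14 DAA. Application: acetone, 187 l/ha, 15–1000 g ai/ha, flat-fan track sprayer with nozzle 40–45 cm above soil or canopy. Post-emerge runs used 0.25% v/v surfactant on 2–3 leaf plants.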

[2] = system: barnyardgrass (Echinochloa crus-galli, ECHCG); assay: as above; details: for phytotoxicity rating ECHCG: pre-emerge, 14 days after application, scale 0-100; for Pre-emerge Herbicidal Activity, phytotoxicity rating (0-100), ECHCG: rated 14 days after application, 0 = no damage, 100 = complete death
Outline: (§2)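 Visual ratings on a 0-100 scale (0 no damage, 100 all plants dead) were taken at 14 days after treatment. Rates of 15-1000 g ai/ha in acetone, 187 l/ha, were sprayed onto soil one day after planting (pre-emerge) or onto 2-3 leaf plants with 0.25% v/v surfactant (post-emerge).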

[3] = system: green foxtail (Setaria viridis, SETVI); assay: as above; details: for phytotoxicity rating SETVI: pre-emerge, 14 days after application, scale 0-100; for Pre-emerge Herbicidal Activity, phytotoxicity rating (0-100), SETVI: rated 14 days after application, 0 = no damage, 100 = complete death
Outline: as §2

[4] = system: ivyleaf morningglory (Ipomoea hederacea, IPOHE); assay: as above; details: for phytotoxicity rating IPOHE: pre-emerge, 14 days after application, scale 0-100; for Pre-emerge Herbicidal Activity, phytotoxicity rating (0-100), IPOHE: rated 14 days after application, 0 = no damage, 100 = complete death
Outline: as §2

[5] = system: johnsongrass (Sorghum halepense, SORHA); assay: as above; details: for phytotoxicity rating SORHA: pre-emerge, 14 days after application, scale 0-100; for Pre-emerge Herbicidal Activity, phytotoxicity rating (0-100), SORHA: rated 14 days after application, 0 = no damage, 100 = complete death
Outline: as §2

[6] = system: lambsquarters (Chenopodium album, CHEAL); assay: as above; details: for phytotoxicity rating CHEAL: pre-emerge, 14 days after application, scale 0-100; for Pre-emerge Herbicidal Activity, phytotoxicity rating (0-100), CHEAL: rated 14 days after application, 0 = no damage, 100 = complete death
Outline: as §2

[7] = system: large crabgrass (Digitaria sanguinalis, DIGSA); assay: as above; details: for phytotoxicity rating DIGSA: pre-emerge, 14 days after application, scale 0-100; for Pre-emerge Herbicidal Activity, phytotoxicity rating (0-100), DIGSA: rated 14 days after application, 0 = no damage, 100 = complete death
Outline: as §2

[8] = system: sicklepod (Cassia obtusifolia, CASOB); assay: as above; details: for phytotoxicity rating CASOB: pre-emerge, 14 days after application, scale 0-100; for Pre-emerge Herbicidal Activity, phytotoxicity rating (0-100), CASOB: rated 14 days after application, 0 = no damage, 100 = complete death
Outline: as §2

[9] = system: velvetleaf (Abutilon theophrasti, ABUTH); assay: as above; details: for phytotoxicity rating ABUTH: pre-emerge, 14 days after application, scale 0-100; for Pre-emerge Herbicidal Activity, phytotoxicity rating (0-100), ABUTH: rated 14 days after application, 0 = no damage, 100 = complete death
Outline: as §2

[10] = system: barnyardgrass (Echinochloa crus-galli, ECHCG); assay: Post-emerge test, greenhouse herbicide activity screening; details: post-emerge, 14 days after application, rating scale 0-100
Outline: as §1

[11] = system: green foxtail (Setaria viridis, SETVI); assay: as above; details: post-emerge, 14 days after application, rating scale 0-100
Outline: as §1

[12] = system: ivyleaf morningglory (Ipomoea hederacea, IPOHE); assay: as above; details: post-emerge, 14 days after application, rating scale 0-100
Outline: as §1

[13] = system: johnsongrass (Sorghum halepense, SORHA); assay: as above; details: post-emerge, 14 days after application, rating scale 0-100
Outline: as §1

[14] = system: large crabgrass (Digitaria sanguinalis, DIGSA); assay: as above; details: post-emerge, 14 days after application, rating scale 0-100
Outline: as §1

[15] = system: redroot pigweed (Amaranthus retroflexus, AMARE); assay: as above; details: post-emerge, 14 days after application, rating scale 0-100
Outline: as §1

[16] = system: sicklepod (Cassia obtusifolia, CASOB); assay: as above; details: post-emerge, 14 days after application, rating scale 0-100
Outline: as §1

[17] = system: velvetleaf (Abutilon theophrasti, ABUTH); assay: as above; details: post-emerge, 14 days after application, rating scale 0-100
Outline: as §1

[18] = system: lambsquarters (Chenopodium album, CHEAL); assay: as above; details: post-emerge, 14 days after application, rating scale 0-100
Outline: as §1

SMILES: Cn1c(C(F)(F)F)cc(=O)n(-c2c(F)cc(Cl)cc2NC(=O)c2ccc3ccccc3c2)c1=O [Compound 2-145, 3-[4-chloro-6-fluoro-2-(2-naphthoylamino)phenyl]-1-methyl-6-trifluoromethyl-2,4(1H, 3H)-pyrimidinedione]
- phytotoxicity rating AMARE ([1]; 63 g ai/ha): 100
- phytotoxicity rating AMARE ([1]; 250 g ai/ha): 100
- phytotoxicity rating ECHCG ([2]; 63 g ai/ha): 35
- phytotoxicity rating ECHCG ([2]; 250 g ai/ha): 60
- phytotoxicity rating SETVI ([3]; 63 g ai/ha): 60
- phytotoxicity rating SETVI ([3]; 250 g ai/ha): 100
- phytotoxicity rating IPOHE ([4]; 63 g ai/ha): 10
- phytotoxicity rating IPOHE ([4]; 250 g ai/ha): 100
- phytotoxicity rating SORHA ([5]; 63 g ai/ha): 30
- phytotoxicity rating SORHA ([5]; 250 g ai/ha): 50
- phytotoxicity rating CHEAL ([6]; 63 g ai/ha): 100
- phytotoxicity rating CHEAL ([6]; 250 g ai/ha): 100
- phytotoxicity rating DIGSA ([7]; 63 g ai/ha): 90
- phytotoxicity rating DIGSA ([7]; 250 g ai/ha): 100
- phytotoxicity rating CASOB ([8]; 63 g ai/ha): 40
- phytotoxicity rating CASOB ([8]; 250 g ai/ha): 90
- phytotoxicity rating ABUTH ([9]; 63 g ai/ha): 90
- phytotoxicity rating ABUTH ([9]; 250 g ai/ha): 100
- ECHCG phytotoxicity rating ([10]; 63 g ai/ha): 0
- ECHCG phytotoxicity rating ([10]; 250 g ai/ha): 20
- SETVI phytotoxicity rating ([11]; 63 g ai/ha): 0
- SETVI phytotoxicity rating ([11]; 250 g ai/ha): 40
- IPOHE phytotoxicity rating ([12]; 63 g ai/ha): 100
- IPOHE phytotoxicity rating ([12]; 250 g ai/ha): 100
- SORHA phytotoxicity rating ([13]; 63 g ai/ha): 0
- SORHA phytotoxicity rating ([13]; 250 g ai/ha): 10
- DIGSA phytotoxicity rating ([14]; 63 g ai/ha): 0
- DIGSA phytotoxicity rating ([14]; 250 g ai/ha): 10
- AMARE phytotoxicity rating ([15]; 63 g ai/ha): 95
- AMARE phytotoxicity rating ([15]; 250 g ai/ha): 100
- CASOB phytotoxicity rating ([16]; 63 g ai/ha): 100
- CASOB phytotoxicity rating ([16]; 250 g ai/ha): 100
- ABUTH phytotoxicity rating ([17]; 63 g ai/ha): 100
- ABUTH phytotoxicity rating ([17]; 250 g ai/ha): 100

SMILES: Cn1c(C(F)(F)F)cc(=O)n(-c2c(F)cc(Cl)c(OC(F)F)c2NC(=O)c2ccc3ccccc3c2)c1=O [Compound 2-115, 3-[4-chloro-3-difluoromethoxy-6-fluoro-2-(2-naphthoylamino)phenyl]-1-methyl-6-trifluoromethyl-2,4(1H, 3H)-pyrimidinedione]
- Pre-emerge Herbicidal Activity, phytotoxicity rating (0-100), AMARE ([1]; 63 g ai/ha): 100
- Pre-emerge Herbicidal Activity, phytotoxicity rating (0-100), AMARE ([1]; 125 g ai/ha): 100
- Pre-emerge Herbicidal Activity, phytotoxicity rating (0-100), ECHCG ([2]; 63 g ai/ha): 80
- Pre-emerge Herbicidal Activity, phytotoxicity rating (0-100), ECHCG ([2]; 125 g ai/ha): 95
- Pre-emerge Herbicidal Activity, phytotoxicity rating (0-100), SETVI ([3]; 63 g ai/ha): 90
- Pre-emerge Herbicidal Activity, phytotoxicity rating (0-100), SETVI ([3]; 125 g ai/ha): 99
- Pre-emerge Herbicidal Activity, phytotoxicity rating (0-100), IPOHE ([4]; 63 g ai/ha): 0
- Pre-emerge Herbicidal Activity, phytotoxicity rating (0-100), IPOHE ([4]; 125 g ai/ha): 90
- Pre-emerge Herbicidal Activity, phytotoxicity rating (0-100), SORHA ([5]; 63 g ai/ha): 20
- Pre-emerge Herbicidal Activity, phytotoxicity rating (0-100), SORHA ([5]; 125 g ai/ha): 30
- Pre-emerge Herbicidal Activity, phytotoxicity rating (0-100), CHEAL ([6]; 63 g ai/ha): 100
- Pre-emerge Herbicidal Activity, phytotoxicity rating (0-100), CHEAL ([6]; 125 g ai/ha): 100
- Pre-emerge Herbicidal Activity, phytotoxicity rating (0-100), DIGSA ([7]; 63 g ai/ha): 90
- Pre-emerge Herbicidal Activity, phytotoxicity rating (0-100), DIGSA ([7]; 125 g ai/ha): 100
- Pre-emerge Herbicidal Activity, phytotoxicity rating (0-100), CASOB ([8]; 63 g ai/ha): 20
- Pre-emerge Herbicidal Activity, phytotoxicity rating (0-100), CASOB ([8]; 125 g ai/ha): 80
- Pre-emerge Herbicidal Activity, phytotoxicity rating (0-100), ABUTH ([9]; 63 g ai/ha): 100
- Pre-emerge Herbicidal Activity, phytotoxicity rating (0-100), ABUTH ([9]; 125 g ai/ha): 100
- phytotoxicity rating ECHCG ([10]; 63 g ai/ha): 10
- phytotoxicity rating ECHCG ([10]; 250 g ai/ha): 20
- phytotoxicity rating SETVI ([11]; 63 g ai/ha): 0
- phytotoxicity rating SETVI ([11]; 250 g ai/ha): 0
- phytotoxicity rating IPOHE ([12]; 63 g ai/ha): 90
- phytotoxicity rating IPOHE ([12]; 250 g ai/ha): 95
- phytotoxicity rating SORHA ([13]; 63 g ai/ha): 0
- phytotoxicity rating SORHA ([13]; 250 g ai/ha): 0
- phytotoxicity rating CHEAL ([18]; 63 g ai/ha): 100
- phytotoxicity rating CHEAL ([18]; 250 g ai/ha): 100
- phytotoxicity rating DIGSA ([14]; 63 g ai/ha): 20
- phytotoxicity rating DIGSA ([14]; 250 g ai/ha): 50
- phytotoxicity rating AMARE ([15]; 63 g ai/ha): 100
- phytotoxicity rating AMARE ([15]; 250 g ai/ha): 100
- phytotoxicity rating CASOB ([16]; 63 g ai/ha): 90
- phytotoxicity rating CASOB ([16]; 250 g ai/ha): 95
- phytotoxicity rating ABUTH ([17]; 63 g ai/ha): 100
- phytotoxicity rating ABUTH ([17]; 250 g ai/ha): 100

Source: patent US6355799B1, “Substituted benzene compounds, process for their preparation, and herbicidal and defoliant compositions containing them” (ISK Americas Incorporated, priority 1997, dated 2002)
